Data published in patent US9115101B2 (Genentech, Inc., priority 2012, dated 2015).
pIC50: −log10 of the molar value.

Molecular target: T1, RORc ligand binding domain (Homo sapiens, UniProt P51449)
T1 construct: host or cells: E. coli
T1 sequence (P51449 269-508 limits assumed): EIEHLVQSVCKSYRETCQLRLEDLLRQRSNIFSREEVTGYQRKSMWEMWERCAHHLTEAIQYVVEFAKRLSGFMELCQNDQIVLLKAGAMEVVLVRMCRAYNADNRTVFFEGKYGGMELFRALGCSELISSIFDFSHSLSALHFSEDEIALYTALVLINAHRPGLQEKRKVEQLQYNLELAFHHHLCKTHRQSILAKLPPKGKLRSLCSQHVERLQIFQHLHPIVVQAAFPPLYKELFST
Experiment: In Vitro RORc Ligand Binding Assay (25-[3H]hydroxycholesterol radioligand filtration)
Details: read-out: RORc IC50

| pIC50 | SMILES |
| --- | --- |
| 6.61 | CNC(=O)[C@H]1CN(C(C)=O)CCN1c1ccc(CN2[C@@H](C)CCC(c3ccccc3)S2(=O)=O)c(F)c1 (stereo partly drawn) [Example 435, (R)-4-Acetyl-1-[3-fluoro-4-((3S)-methyl-1,1-dioxo-6-phenyl-[1,2]thiazinan-2-ylmethyl)-phenyl]-piperazine-2-carboxylic acid methylamide] |
| 7.07 | C[C@H]1CCC(c2ccccc2)S(=O)(=O)N1Cc1ccc(OCC2CCOCC2)cc1 (stereo partly drawn) [Example 436, (3S)-Methyl-6-phenyl-2-[4-(tetrahydro-pyran-4-ylmethoxy)-benzyl]-[1,2]thiazinane 1,1-dioxide] |
| 7.32 | CC(Oc1ccc(CN2[C@@H](C)CCC(c3ccccc3)S2(=O)=O)cc1)C1CCOCC1 (stereo partly drawn) [Example 437, (3S)-Methyl-6-phenyl-2-{4-[1-(tetrahydro-pyran-4-yl)-ethoxy]-benzyl}-[1,2]thiazinane 1,1-dioxide] |
| 6.18 | C[C@H]1CCC(c2ccccc2)S(=O)(=O)N1Cc1ccc(OCCN2CCOCC2)cc1 (stereo partly drawn) [Example 438, 4-{2-[4-((3S)-Methyl-1,1-dioxo-6-phenyl-[1,2]thiazinan-2-ylmethyl)-phenoxy]-ethyl}-morpholine] |
| 6.49 | C[C@H]1CCC(c2ccccc2)S(=O)(=O)N1Cc1ccc(OCCN2CCCC2=O)cc1 (stereo partly drawn) [Example 439, 1-{2-[4-((3S)-Methyl-1,1-dioxo-6-phenyl-[1,2]thiazinan-2-ylmethyl)-phenoxy]-ethyl}-pyrrolidin-2-one] |
| 7.92 | C[C@H]1CCC(c2ccccc2)S(=O)(=O)N1Cc1ccc(N2C[C@@H]3[C@H](C2)[C@H]3n2cnnc2)cc1F (stereo partly drawn) [Example 440, (1R,5S,6S)-3-[3-Fluoro-4-((3S)-methyl-1,1-dioxo-6-phenyl-[1,2]thiazinan-2-ylmethyl)-phenyl]-6-[1,2,4]triazol-4-yl-3-aza-bicyclo[3.1.0]hexane] |
| 6.77 | C[C@H]1CCC(c2ccccc2)S(=O)(=O)N1Cc1ccc(N2CCN(c3cnccn3)CC2)cc1F (stereo partly drawn) [Example 441, 4-[3-Fluoro-4-((3S)-methyl-1,1-dioxo-6-phenyl-[1,2]thiazinan-2-ylmethyl)-phenyl]-3,4,5,6-tetrahydro-2H-[1,2′]bipyrazinyl] |
| 7.43 | C[C@H]1CCC(c2ccccc2)S(=O)(=O)N1Cc1ccc(N2CCN(c3ncncn3)CC2)cc1F (stereo partly drawn) [Example 442, 2-{4-[3-Fluoro-4-((3S)-methyl-1,1-dioxo-6-phenyl-[1,2]thiazinan-2-ylmethyl)-phenyl]-piperazin-1-yl}-[1,3,5]triazine] |
| 7.60 | C[C@H]1CCC(c2ccccc2)S(=O)(=O)N1Cc1ccc(NCC2CCOCC2)cc1F (stereo partly drawn) [Example 445, [3-Fluoro-4-((3S)-methyl-1,1-dioxo-6-phenyl-[1,2]thiazinan-2-ylmethyl)-phenyl]-(tetrahydro-pyran-4-ylmethyl)-amine] |
| 5.82 | C[C@H]1CCC(c2ccccc2)S(=O)(=O)N1Cc1ccc(OC2CCNC2=O)cc1 (stereo partly drawn) [Example 446, 3-[4-((3S)-Methyl-1,1-dioxo-6-phenyl-[1,2]thiazinan-2-ylmethyl)-phenoxy]-pyrrolidin-2-one] |
| 6.57 | C[C@H]1CCC(c2ccccc2)S(=O)(=O)N1Cc1ccc(OC2CCOC2)cc1 (stereo partly drawn) [Example 447, (3S)-Methyl-6-phenyl-2-[4-(tetrahydro-furan-3-yloxy)-benzyl]-[1,2]thiazinane 1,1-dioxide] |
| 6.18 | C[C@H]1CCC(c2ccccc2)S(=O)(=O)N1Cc1ccc(OCC2(C)COC2)cc1 (stereo partly drawn) [Example 448, (3S)-Methyl-2-[4-(3-methyl-oxetan-3-ylmethoxy)-benzyl]-6-phenyl-[1,2]thiazinane 1,1-dioxide] |
| 6.07 | C[C@H]1CCC(c2ccccc2)S(=O)(=O)N1Cc1ccc(OC2CCC(=O)NC2)cc1 (stereo partly drawn) [Example 449, 5-[4-((3S)-Methyl-1,1-dioxo-6-phenyl-[1,2]thiazinan-2-ylmethyl)-phenoxy]-piperidin-2-one] |
